Reference: patent US7256187B2, “Rifamycin C-11 oxime derivatives effective against drug-resistant microbes” (Cumbre Pharmaceuticals Inc., priority 2004, dated 2007)
Converted amounts (≈) assume the structure as drawn.

Key:
Assay type in all cases: cell-based
[1] = tested on: Haemophilus influenzae ATCC10211; assay: MIC, microbroth dilution; conditions: Haemophilus influenzae ATCC10211, rifS; read-out: Antimicrobial activity (MIC)
[2] = tested on: Escherichia coli ATCC25922; assay: MIC, microbroth dilution; conditions: Escherichia coli ATCC25922, rifS; read-out: Antimicrobial activity (MIC)
[3] = tested on: Streptococcus pyogenes ATCC19615; assay: MIC, microbroth dilution; conditions: Streptococcus pyogenes ATCC19615, rifS; read-out: Antimicrobial activity (MIC)
[4] = tested on: Enterococcus faecalis ATCC29212; assay: MIC, microbroth dilution; conditions: Enterococcus faecalis ATCC29212, rifS; read-out: Antimicrobial activity (MIC)
[5] = tested on: Streptococcus pneumoniae ATCC6303; assay: MIC, microbroth dilution; conditions: Streptococcus pneumoniae ATCC6303, rifS; read-out: Antimicrobial activity (MIC)
[6] = tested on: Mycobacterium smegmatis ATCC700084; assay: MIC, microbroth dilution; conditions: Mycolicibacterium smegmatis; Mycobacterium smegmatis ATCC700084, rifS; read-out: Antimicrobial activity (MIC)
[7] = tested on: Staphylococcus aureus EN1252a gyrA^S84L grlA^S80F; assay: microbe, parasite or virus in culture; conditions: Staphylococcus aureus EN1252a gyrA^S84L grlA^S80F, cipR; read-out: Antimicrobial activity (MIC)
Protocol: (§1) Representative compounds were assayed for antimicrobial activity as follows: Minimum Inhibitory Concentrations (“MICs”) were determined by the microbroth dilution method as per NCCLS guidelines (National Committee for Clinical Laboratory Standards. 2000. Methods for dilution antimicrobial susceptibility tests for bacteria that grow aerobically, 5th ed. M7-A5. National Committee for Clinical Laboratory Standards, Wayne, Pa.), except that all growth incubations were conducted at 37° C. Bacterial cultures were tested in the following bacteriological media: S. aureus, S. epidermidis, and E. coli in Cation-Adjusted Mueller-Hinton Broth, S. pneumoniae in THY Broth supplemented with 1 mg/mL catalase under 5% CO2 atmosphere, S. pyogenes in THY Broth, E. faecalis in BHI Broth, H. influenzae in BHI Broth supplemented with 0.75 μL of 1 mg/mL NAD and 150 μL of 1 mg/ml hematin per 5 mL, and M. smegmatis in Middlebrook Broth plus ADC Enrichment.
(§2) S. aureus ATCC 29213 RpoB^H418Y is a rifampin-resistant strain with a mutation in the RpoB gene of RNA polymerase. […] S. aureus EN1252a gyrA^S84L grlA^S80F is a quinolone-resistant strain due to double gene mutations of DNA gyrase and topoisomerase IV.

[8] = tested on: Staphylococcus aureus ATCC29213 rpoB^D417Y; assay: microbe, parasite or virus in culture; conditions: Staphylococcus aureus ATCC29213 rpoB^D417Y, rifR; read-out: Antimicrobial activity (MIC)
Protocol: as §1, §2

[9] = tested on: Staphylococcus aureus ATCC29213 rpoB^H418Y; assay: microbe, parasite or virus in culture; conditions: Staphylococcus aureus ATCC29213 rpoB^H418Y, rifR; read-out: Antimicrobial activity (MIC)
Protocol: as §1, §2

[10] = tested on: Staphylococcus aureus ATCC29213; assay: MIC, microbroth dilution; conditions: Staphylococcus aureus ATCC29213, rifS; read-out: Antimicrobial activity (MIC)
[11] = tested on: Staphylococcus epidermidis ATCC12228; assay: MIC, microbroth dilution; conditions: Staphylococcus epidermidis ATCC12228, rifS; read-out: Antimicrobial activity (MIC)

Compound | MIC [1] [µg/mL] | MIC [2] [µg/mL] | MIC [3] [µg/mL] | MIC [4] [µg/mL] | MIC [5] [µg/mL] | MIC [6] [µg/mL] | MIC [7] [µg/mL] | MIC [8] [µg/mL] | MIC [9] [µg/mL] | MIC [10] [µg/mL] | MIC [11] [µg/mL]
CO[C@H]1/C=C/O[C@@]2(C)Oc3c(C)c(O)c4c(c3/C2=N/O)C(=O)C(N2CCN(c3cc5c(cc3F)c(=O)c(C(=O)O)cn5C3CC3)CC2)=C(NC(=O)/C(C)=C\C=C\[C@H](C)[C@H](O)[C@@H](C)[C@@H](O)[C@@H](C)[C@H](OC(C)=O)[C@@H]1C)C4=O [Example 33, 11-Deoxy-3-[4-(3-carboxy-1-cyclopropyl-6-fluoro-4-oxo-1,4-dihydroquinolin-7-yl)piperazin-1-yl]-11-hydroxyiminorifamycin S] | 0.03 to 2 (≈ 0.0288 to 1.92 µM) | 0.125 to 8 (≈ 0.12 to 7.69 µM) | 0.0005 to 0.063 (≈ 0.000481 to 0.0606 µM) | 2 to 32 (≈ 1.92 to 30.8 µM) | 0.0002 to 0.125 (≈ 0.000192 to 0.12 µM) | 0.5 to 64 (≈ 0.481 to 61.5 µM) | 0.004 to 0.5 (≈ 0.00385 to 0.481 µM) | 0.25 to 32 (≈ 0.24 to 30.8 µM) | 0.125 to 16 (≈ 0.12 to 15.4 µM) | 0.004 to 0.5 (≈ 0.00385 to 0.481 µM) | 0.0005 to 0.063 (≈ 0.000481 to 0.0606 µM)
CO[C@H]1/C=C/O[C@@]2(C)Oc3c(C)c(O)c4c(c3/C2=N/OCCBr)C(=O)C=C(NC(=O)/C(C)=C\C=C\[C@H](C)[C@H](O)[C@@H](C)[C@@H](O)[C@@H](C)[C@H](OC(C)=O)[C@@H]1C)C4=O [Example 12, 11-Deoxy-11-(2-bromoethoxyimino)rifamycin S] | 0.03 to 2 (≈ 0.0367 to 2.45 µM) | 0.125 to 8 (≈ 0.153 to 9.78 µM) | 0.0005 to 0.063 (≈ 0.000611 to 0.077 µM) | 2 to 32 (≈ 2.45 to 39.1 µM) | 0.0002 to 0.125 (≈ 0.000245 to 0.153 µM) | 0.5 to 64 (≈ 0.611 to 78.3 µM) | 0.004 to 0.5 (≈ 0.00489 to 0.611 µM) | 0.25 to 32 (≈ 0.306 to 39.1 µM) | 0.125 to 16 (≈ 0.153 to 19.6 µM) | 0.004 to 0.5 (≈ 0.00489 to 0.611 µM) | 0.0005 to 0.063 (≈ 0.000611 to 0.077 µM)
COc1c(N2CCN(CCO/N=C3/c4c5c(C)c(O)c6c4C(=O)C=C(NC(=O)/C(C)=C\C=C\[C@H](C)[C@H](O)[C@@H](C)[C@@H](O)[C@@H](C)[C@H](OC(C)=O)[C@H](C)[C@@H](OC)/C=C/O[C@@]3(C)O5)C6=O)C(C)C2)c(F)cc2c(=O)c(C(=O)O)cn(C3CC3)c12 (stereo partly drawn) [Example 13] | 0.03 to 2 (≈ 0.027 to 1.8 µM) | 0.125 to 8 (≈ 0.112 to 7.19 µM) | 0.0005 to 0.063 (≈ 0.00045 to 0.0566 µM) | 2 to 32 (≈ 1.8 to 28.8 µM) | 0.0002 to 0.125 (≈ 0.00018 to 0.112 µM) | 0.5 to 64 (≈ 0.45 to 57.5 µM) | 0.004 to 0.5 (≈ 0.0036 to 0.45 µM) | 0.25 to 32 (≈ 0.225 to 28.8 µM) | 0.125 to 16 (≈ 0.112 to 14.4 µM) | 0.004 to 0.5 (≈ 0.0036 to 0.45 µM) | 0.0005 to 0.063 (≈ 0.00045 to 0.0566 µM)
CO[C@H]1/C=C/O[C@@]2(C)Oc3c(C)c(O)c4c(c3/C2=N/O)/C(=N/O)C=C(NC(=O)/C(C)=C\C=C\[C@H](C)[C@H](O)[C@@H](C)[C@@H](O)[C@@H](C)[C@H](OC(C)=O)[C@@H]1C)C4=O [Example 4, 4, 11-Dideoxy-4,11-dihydroxyiminorifamycin S] | 0.03 to 2 (≈ 0.0413 to 2.76 µM) | 0.125 to 8 (≈ 0.172 to 11 µM) | 0.0005 to 0.063 (≈ 0.000689 to 0.0868 µM) | 2 to 32 (≈ 2.76 to 44.1 µM) | 0.0002 to 0.125 (≈ 0.000276 to 0.172 µM) | 0.5 to 64 (≈ 0.689 to 88.2 µM) | 0.004 to 0.5 (≈ 0.00551 to 0.689 µM) | 0.25 to 32 (≈ 0.344 to 44.1 µM) | 0.125 to 16 (≈ 0.172 to 22 µM) | 0.004 to 0.5 (≈ 0.00551 to 0.689 µM) | 0.0005 to 0.063 (≈ 0.000689 to 0.0868 µM)
CO[C@H]1/C=C/O[C@@]2(C)Oc3c(C)c(O)c4c(c3/C2=N/O)C(=O)C(/C=N/N2CCN(C)CC2)=C(NC(=O)/C(C)=C\C=C\[C@H](C)[C@H](O)[C@@H](C)[C@@H](O)[C@@H](C)[C@H](OC(C)=O)[C@@H]1C)C4=O [Example 38, 11-Deoxy-11-hydroxyimino-3-(4-methylpiperazin-1-yl)aminomethenylrifamycin S] | 0.03 to 2 (≈ 0.0359 to 2.39 µM) | 0.125 to 8 (≈ 0.15 to 9.57 µM) | 0.0005 to 0.063 (≈ 0.000598 to 0.0754 µM) | 2 to 32 (≈ 2.39 to 38.3 µM) | 0.0002 to 0.125 (≈ 0.000239 to 0.15 µM) | 0.5 to 64 (≈ 0.598 to 76.6 µM) | 0.004 to 0.5 (≈ 0.00478 to 0.598 µM) | 0.25 to 32 (≈ 0.299 to 38.3 µM) | 0.125 to 16 (≈ 0.15 to 19.1 µM) | 0.004 to 0.5 (≈ 0.00478 to 0.598 µM) | 0.0005 to 0.063 (≈ 0.000598 to 0.0754 µM)
CO[C@H]1/C=C/O[C@@]2(C)Oc3c(C)c(O)c4c(c3/C2=N/OC(C)=O)C(=O)C=C(NC(=O)/C(C)=C\C=C\[C@H](C)[C@H](O)[C@@H](C)[C@@H](O)[C@@H](C)[C@H](OC(C)=O)[C@@H]1C)C4=O [Example 9, 11-Deoxy-11-acetoxyiminorifamycin S] | 0.03 to 2 (≈ 0.0399 to 2.66 µM) | 0.125 to 8 (≈ 0.166 to 10.6 µM) | 0.0005 to 0.063 (≈ 0.000664 to 0.0837 µM) | 2 to 32 (≈ 2.66 to 42.5 µM) | 0.0002 to 0.125 (≈ 0.000266 to 0.166 µM) | 0.5 to 64 (≈ 0.664 to 85 µM) | 0.004 to 0.5 (≈ 0.00531 to 0.664 µM) | 0.25 to 32 (≈ 0.332 to 42.5 µM) | 0.125 to 16 (≈ 0.166 to 21.3 µM) | 0.004 to 0.5 (≈ 0.00531 to 0.664 µM) | 0.0005 to 0.063 (≈ 0.000664 to 0.0837 µM)
